Where a name gives a salt, the structure may show the parent alone. Read-outs that look alike come from different tables or passages of the source.
Legend:
[1] = molecular target: T1, P. mirabilis urease (Proteus mirabilis, UniProt P17086); type: cell-based; conditions: for effect on P. mirabilis urease activity (whole cell): potassium phosphate buffer, dose response
T1 construct: it utilizes whole bacterial cells, rather than isolated enzyme preparations; endogenous in cells; host or cells: Proteus mirabilis HI4320, live whole cells
Method: Urease activity was measured as described previously in triplicate with at least three biological replicates[21]. Briefly, bacteria were cultured for ~18 h in LB broth, concentrated to an OD600 of 4, washed once in saline, and diluted (1:10 for P. mirabilis and 1:50 for P. stuartii and M. morganii) into candidate dampening metabolites in potassium phosphate buffer or human urine pH7 and supplemented with 500 mM urea and 0.01% phenol red. Bacterial suspensions were distributed into a 96-well plate, incubated at 37 °C with double-orbital shaking in a Synergy H1 plate reader (BioTek), and absorbance (OD562) was measured every 60 seconds for 180 minutes. Isogenic urease mutants (Supplementary Data 1) served as negative controls for P. mirabilis and P. stuartii and a vehicle control served as a negative control for M. morganii.

[2] = molecular target: T2, urease of P. mirabilis HI4320 cell free extracts (Proteus mirabilis, UniProt P17086); type: biochemical
T2 construct: 20ul of cell-free extract were distributed into a 96-well plate in place of the whole cell bacterial suspensions; endogenous in cells; host or cells: Proteus mirabilis HI4320, urea-induced; freeze-thaw and sonication lysate, clarified supernatant
Method: To measure urease activity of the cell free extracts of P. mirabilis, P. mirabilis was cultured for ~18 h in LB broth and then sub cultured until it reached mid-log growth phase (OD600 0.2-0.5). Cultures were spun down to pellet at 10,000 rcf for 10 minutes and resuspended in saline to a final OD600 of 1.0. Cultures were then diluted 1:10 in potassium phosphate buffer pH7 supplemented with 500 mM urea and incubated at 37 °C with shaking for 1 h to induce its urease enzyme production. The isogenic urease mutant Pm ureF::kan (Supplementary Data 1) served as negative control. Cultures then were spun down to pellet at 10,000 rcf for 10 minutes and resuspended in 2 mL saline. Cultures were subjected to four cycles of freezing in liquid nitrogen and thawing in a 37 °C water bath. Cultures were then probe sonicated (on ice) at 25% amplitude for 10 sec. Sonicated cultures were centrifuged at 18,900 Xg for 5 min and supernatants were transferred to a clean tube and stored on ice. To measure urease activity of cell free extracts, the previously described assay was modified such that 20ul of cell-free extract were distributed into a 96-well plate in place of the whole cell bacterial suspensions. Acetohydroxamic acid (AHA), was used as a positive control. Percent of maximum urease activity was calculated using Area Under the Curve (AUC) relative to untreated cell free extracts of P. mirabilis.

[3] = molecular target: T3, Jack Bean Urease (JBU) (Canavalia ensiformis, UniProt P07374); type: biochemical; conditions: for JBU activity: 0.1 U JBU, 500 mM urea
T3 construct: purchased Sigma-Aldrich
Method: To measure Jack Bean urease activity, the previously described assay was modified such that 0.1 U (1U liberates 1 µmol of ammonia from urea per minute) of JBU (Sigma-Aldrich urease from Canavalia ensiformis) were distributed into a 96-well plate in place of the bacterial suspensions. Acetohydroxamic acid (AHA), was used as a positive control and a vehicle control was used as a negative control. Percent of maximum urease activity was calculated using Area Under the Curve (AUC) relative to untreated bacteria of interest or untreated JBU. Urease activity measurement in MRSA was adapted from a recently published semi quantitative assay (See Supplementary materials for details)[48].
414 Supplementary Figure 13. Microbial metabolites dampen activity of purified Jack Bean
415 Urease (JBU). 0.1 U of JBU (1U liberates 1 µmol of ammonia from urea per minute) was
416 incubated at 37 °C with shaking in urease-dampening metabolites, 500mM urea, and phenol red.
417 A urea analogue, AHA, served as the positive control for inhibition of JBU. Absorbance
418 (OD562) was measured every 60 seconds for 90 minutes, and activity is expressed as percent of
419 maximum activity (% Max Activity) relative to untreated JBU. Graphs show mean±SD for 3
420 independent experiments with 3 technical replicates each. Data were analyzed by two tailed one
421 sample t-test to a hypothetical value of 100% activity. ***P<0.001, **P<0.002, *P<0.033.
(1 picture or pasted object on this page, not shown here)

[4] = molecular target: T4, urease of P. mirabilis cell free extracts (Proteus mirabilis, UniProt P17086); type: biochemical; conditions: for type of urease inhibition: Michaelis-Menten parameters, Lineweaver-Burke plot
T4 construct: 20ul of cell-free extract were distributed into a 96-well plate in place of the whole cell bacterial suspensions; endogenous in cells; host or cells: Proteus mirabilis HI4320, urea-induced; freeze-thaw and sonication lysate, clarified supernatant
Method: For the kinetic analysis of the urease reaction in the presence of urease dampening metabolites, urease activity assays were repeated with the P. mirabilis cell free extracts. Six different inhibitor concentrations that gave linear rates of reaction over a period of 120 min were tested for their effects on urease activity in the presence of urea concentrations ranging from 0 to 500 mM. Simple linear regression was performed on the absorbance (OD562) over 120 minutes for each condition and plotted as Initial velocity (slope) vs urea concentration. These initial hyperbolic plots were converted to double-reciprocal Lineweaver-Burke plots, and the pattern of inhibition inferred from the point of intersection of the lines. Finally, the Ki for a particular compound was determined by plotting the Km/Vmax ratio (the slope of the Lineweaver-Burke plots) of each line as a function of the inhibitor concentration as described by ref. [49]. The X-intercept corresponded to –Ki.

[5] = molecular target: T1, P. mirabilis urease; type: cell-based; conditions: for Combination index (CI): in combination with AHA; for Compound 2 %I alone: kphos
Method: To assess the synergistic effects of dampening metabolites when used in combination with each other, P. mirabilis urease activity was measured as described above. Between 4-6 different concentrations for each dampening metabolite were tested both alone and in combination (See Fig. 6a for example). […] To account for variability between experiments, all conditions tested were performed on a single 96-well plate with three technical replicates for each condition. To compare between biologic replicates, percent inhibition relative to untreated P. mirabilis was calculated for each condition using the average area under the curve over 120-180 minutes (so that the positive control activity curve saturated without any increase in the negative control curve).
Statistical analysis was conducted using a one sample T test of the combination index compared to a hypothetical value of 1 (additive effect). […] Therefore, combination indexes were calculated using a desired effect size less than 40% were indicated with an * in Fig. 6b and in Supplementary Data 5.

T3 sequence (P07374 whole entry, looked up): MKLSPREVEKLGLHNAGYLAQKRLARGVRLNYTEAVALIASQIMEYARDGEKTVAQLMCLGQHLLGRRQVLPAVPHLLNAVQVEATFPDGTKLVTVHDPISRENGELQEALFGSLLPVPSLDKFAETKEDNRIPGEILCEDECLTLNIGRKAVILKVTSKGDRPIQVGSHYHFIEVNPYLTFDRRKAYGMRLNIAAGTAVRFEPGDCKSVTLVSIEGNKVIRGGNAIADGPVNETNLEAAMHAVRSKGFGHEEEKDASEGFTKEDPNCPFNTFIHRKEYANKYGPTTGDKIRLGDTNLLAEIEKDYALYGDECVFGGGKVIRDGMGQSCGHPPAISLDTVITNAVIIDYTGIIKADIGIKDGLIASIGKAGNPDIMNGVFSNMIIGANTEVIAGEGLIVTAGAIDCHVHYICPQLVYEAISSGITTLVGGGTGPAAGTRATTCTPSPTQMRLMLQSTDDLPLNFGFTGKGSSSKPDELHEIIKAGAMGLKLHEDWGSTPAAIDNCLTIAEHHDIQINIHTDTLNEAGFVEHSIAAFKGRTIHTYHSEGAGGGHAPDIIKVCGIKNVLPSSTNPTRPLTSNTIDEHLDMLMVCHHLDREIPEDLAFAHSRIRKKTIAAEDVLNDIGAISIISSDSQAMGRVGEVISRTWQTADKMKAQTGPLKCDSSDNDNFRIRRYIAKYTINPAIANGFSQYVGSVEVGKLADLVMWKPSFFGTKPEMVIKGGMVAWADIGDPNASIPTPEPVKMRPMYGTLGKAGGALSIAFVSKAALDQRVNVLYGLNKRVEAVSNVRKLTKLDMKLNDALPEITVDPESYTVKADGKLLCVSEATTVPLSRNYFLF
T1 sequence (P17086 whole entry): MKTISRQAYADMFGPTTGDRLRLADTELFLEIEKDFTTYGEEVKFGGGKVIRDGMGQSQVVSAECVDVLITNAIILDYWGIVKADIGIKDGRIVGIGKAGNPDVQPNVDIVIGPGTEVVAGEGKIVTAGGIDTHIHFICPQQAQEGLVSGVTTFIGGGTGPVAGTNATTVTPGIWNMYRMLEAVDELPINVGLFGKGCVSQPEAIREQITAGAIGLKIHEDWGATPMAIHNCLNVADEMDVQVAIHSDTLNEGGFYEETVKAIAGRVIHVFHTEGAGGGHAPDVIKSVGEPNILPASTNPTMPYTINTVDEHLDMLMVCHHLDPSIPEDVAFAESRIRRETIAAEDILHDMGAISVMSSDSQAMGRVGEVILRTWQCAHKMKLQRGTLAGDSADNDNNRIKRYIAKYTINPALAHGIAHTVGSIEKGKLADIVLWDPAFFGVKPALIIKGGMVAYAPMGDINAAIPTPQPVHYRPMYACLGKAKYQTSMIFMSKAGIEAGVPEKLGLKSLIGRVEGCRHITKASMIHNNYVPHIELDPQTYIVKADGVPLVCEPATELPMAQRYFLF
T1 sequence (P17088 whole entry, further chain): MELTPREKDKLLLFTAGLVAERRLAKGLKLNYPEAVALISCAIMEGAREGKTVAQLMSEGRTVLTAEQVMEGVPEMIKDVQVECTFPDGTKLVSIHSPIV
T1 sequence (P17087 whole entry, further chain): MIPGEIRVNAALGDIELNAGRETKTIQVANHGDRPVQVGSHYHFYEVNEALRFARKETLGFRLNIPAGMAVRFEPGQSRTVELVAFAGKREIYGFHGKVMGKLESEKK
T4 sequence (P17086 whole entry): as the sequence (P17086 whole entry) above
T4 sequence (P17088 whole entry, further chain): as the sequence (P17088 whole entry, further chain) above
T4 sequence (P17087 whole entry, further chain): as the sequence (P17087 whole entry, further chain) above
T2 sequence (P17088 whole entry): as the sequence (P17088 whole entry, further chain) above
T2 sequence (P17086 whole entry): as the sequence (P17086 whole entry) above
T2 sequence (P17087 whole entry, further chain): as the sequence (P17087 whole entry, further chain) above

## Cl.O=C(O)Cc1cnc[nH]1 [4-imidazole acetate, 2-(1H-Imidazol-5-yl)acetic acid hydrochloride]
[1]; biosynthetic pathway/functional group screen, highest concentration tested 20mM
  Dampens urease activity: Yes
[1]
  effect on P. mirabilis urease activity (whole cell): additional hits
[2]
  urease activity of cell free P. mirabilis extracts: at least partially inhibiting
[3]
  JBU activity: inhibited
[4]
  change of estimated Km on addition of metabolite: increase
  change of estimated Vmax on addition of metabolite: decrease
  type of urease inhibition: mixed inhibitors
[5]
  concentrations required to achieve a significant combination index: < 50 mM
  Combination index (CI): < 1

## O.O=C(O)[C@H](O)Cc1cnc[nH]1 [D-imidazole lactate, D-imidazolelactic acid hydrate]
[1]; concentrations not inhibiting growth/viability
  sub-inhibitory concentrations that still decrease P. mirabilis urease activity: ≤ 0.0391 mM
[1]; highest concentration tested 0.625mM
  Urease dampening activity: Yes
[1]
  effect on P. mirabilis urease activity (whole cell): more potent activity profile compared to the L-imidazole lactate
[2]
  urease activity of cell free P. mirabilis extracts: at least partially inhibiting
[3]
  JBU activity: inhibited
[4]
  change of estimated Km on addition of metabolite: remain roughly unchanged
  change of estimated Vmax on addition of metabolite: decrease
  type of urease inhibition: non-competitive inhibition
[5]; Compound 2 [] alone 0.0782, assay date 2024 08 07
  Compound 2 %I alone: 34.9%
[5]; Compound 2 [] alone 0.156, assay date 2024 08 07
  Compound 2 %I alone: 60.4%
[5]; Compound 2 [] alone 0.156, assay date 2024 08 09
  Compound 2 %I alone: 49.2%

## NCCc1c[nH]cn1 [Histamine, histamine dihydrochloride]
[1]
  effect on P. mirabilis urease activity (whole cell): reproducibly decreased
[1]; screen of candidate metabolites, highest concentration tested 20mM, * Trending but not statistically significant, listed as Histamine HCl
  Urease dampening activity: Yes
[2]
  urease activity of cell free P. mirabilis extracts: at least partially inhibiting
[3]
  concentrations at which JBU activity was significantly inhibited: > 20 mM
[4]
  change of estimated Km on addition of metabolite: increase
  change of estimated Vmax on addition of metabolite: decrease
  type of urease inhibition: mixed inhibitors
[5]
  concentrations required to achieve a significant combination index: < 50 mM
  Combination index (CI): < 1
